Read-outs that look alike come from different tables or passages of the source.
How the values were obtained:
[1] = system: Obese Zucker rats; assay: In vivo assessment in obese Zucker rats: clinical chemistry (AP, BUN, CRT, AST, ALT); settings: obese Zucker rats; mean ± SE
[2] = system: Obese Zucker rats; assay: In vivo assessment in obese Zucker rats: blood lipid profile (total cholesterol, triglycerides, HDL); settings: daily 400 μg Cr(III)/kg, 8 weeks, mean
[3] = system: Obese Zucker rats; assay: In vivo assessment in obese Zucker rats: other vascular inflammation markers (cAMP, TNFα, IL-6, OxyDNA); settings: obese Zucker rats, daily 400 μg Cr(III)/kg, 8 weeks, mean ± SE; for OxyDNA: oxidative DNA damage
[4] = system: Obese Zucker rats; assay: In vivo assessment in obese Zucker rats: vascular inflammation markers (MCP-1, CRP, RBP-4, leptin, ICAM, adiponectin); settings: obese Zucker rats, daily 400 μg Cr(III)/kg, 8 weeks, mean; for Adiponectin / CRP / MCP-1: plasma, ELISA
[5] = system: Obese Zucker rats; assay: In vivo assessment in obese Zucker rats: key biological parameters (fasting glucose, HbA1c, vitamin C, GSH, RBC lipid peroxidation); settings: obese Zucker rats, daily 400 μg Cr(III)/kg, 8 weeks, mean; for RBC Lipid Peroxidase: malondialdehyde by thiobarbituric acid; for Fasting Glucose: fasted overnight
[6] = system: Obese Zucker rats; settings: rat, in vivo

Row | Compound | ALT (Alanine Aminotransferease) [1] [u/L] | AP (Alkaline phosphatase) [1] [u/L] | AST (Aspartate Aminotransferase) [1] [u/L] | HDL [2] [mg/dL] | Total Chol/HDL [2] [ratio] | Total Cholesterol [2] [mg/dL] | Triglyceride [2] [mg/dL] | IL-6 [3] [pg/mL] | TNFα [3] [pg/mL] | cAMP [3] [pmol/mL] | OxyDNA [3] [ng/mL] | Leptin [4] [pg/mL] | RBP-4 [4] [ng/mL] | Adiponectin [4] [ng/mL] | CRP [4] [ng/mL] | MCP-1 [4] [pg/mL] | RBC Lipid Peroxidase [5] [nmol/mL] | Fasting Glucose [5] [mg/dL] | GSH [5] [µmol/g] | HbA1c [5] [%] | further results
1 | CCC(=O)[O-].CCC(=O)[O-].CCC(=O)[O-].[Cr+3] [CrProp, Chromium Propionate, reference compound] | 207.00 | 32.20 | 347.25 | 64.19 | 2.68 | 170.56 | 456.14 | 90.50 ± 14.02 | 41.14 ± 10.06 | 26.95 ± 1.13 | 47.19 ± 5.07 | 393.47 | 49851.91 | 12903.52 | 820.04 | 4497.83 | 2.18 | 549.49 | 4.76 | 16.90 | Anion Gap [1]: 29.20; BUN (Blood Urea Nitrogen) [1]: 22.25 mg/dL; BUN/CRT Ratio [1]: 53.40; CRT (Creatinine) [1]: 0.40 mg/dL; Total Bilirubin [1]: 0.10 mg/dL
2 | Chromium Cinnamate [CrCin] |  |  |  | 65.44 | 2.94 | 191.11 | 507.35 | 92.94 ± 13.21 | 8.62 ± 4.90 | 29.24 ± 0.61 | 48.71 ± 1.25 | 379.18 | 47905.13 | 11507.60 | 587.35 | 2428.69 | 3.12 | 557.37 | 5.00 | 15.61 | ALT (Alanine Aminotransferease) [6]: 158.71 u/L; AP (Alkaline phosphatase) [6]: 30.71 u/L; AST (Aspartate Aminotransferase) [6]: 230.14 u/L; Anion Gap [6]: 29.86; BUN (Blood Urea Nitrogen) [6]: 21.43 mg/dL; BUN/CRT Ratio [6]: 51.86; CRT (Creatinine) [6]: 0.41 mg/dL; Total Bilirubin [6]: 0.10 mg/dL
3 | Chromium Glucodinicotinate [Cr(nic)2Gluc] | 138.00 | 27.00 | 238.67 | 65.71 | 3.06 | 197.33 | 534.43 | 81.59 ± 5.21 | 29.40 ± 8.87 | 22.25 ± 1.58 | 45.10 ± 3.76 | 388.37 | 48851.14 | 11448.39 | 530.74 | 1977.46 | 2.00 | 474.38 | 4.62 | 15.21 | BUN/CRT Ratio [6]: 53.67; Anion Gap [1]: 29.00; BUN (Blood Urea Nitrogen) [1]: 21.33 mg/dL; CRT (Creatinine) [1]: 0.40 mg/dL; Total Bilirubin [1]: 0.10 mg/dL
4 | Chromium Picolinate + Biotin [CrP + Biotin] |  |  |  |  |  |  |  |  |  |  |  |  |  |  |  |  |  |  |  |  | ALT (Alanine Aminotransferease) [6]: 100.71 u/L; AP (Alkaline phosphatase) [6]: 64.00 u/L; AST (Aspartate Aminotransferase) [6]: 160.29 u/L; Anion Gap [6]: 25.86; BUN (Blood Urea Nitrogen) [6]: 19.14 mg/dL; BUN/CRT Ratio [6]: 46.50; CRT (Creatinine) [6]: 0.41 mg/dL; Total Bilirubin [6]: 0.10 mg/dL
5 | Chromium Triphenylalanine [Cr(Phe)3, reference compound] | 186.29 | 30.00 | 276.43 | 60.82 | 2.84 | 169.68 | 467.04 | 89.82 ± 8.55 | 15.92 ± 7.76 | 29.62 ± 1.01 | 53.11 ± 4.76 | 387.92 | 48555.98 | 11243.47 | 533.12 | 2064.89 | 2.01 | 549.70 | 4.50 | 15.04 | Anion Gap [1]: 29.00; BUN (Blood Urea Nitrogen) [1]: 20.71 mg/dL; BUN/CRT Ratio [1]: 52.14; CRT (Creatinine) [1]: 0.40 mg/dL; Total Bilirubin [1]: 0.10 mg/dL
6 | Chromium Tryptophanate [CrTrp] | 124.29 | 30.00 | 237.43 | 60.54 | 3.46 | 208.09 | 921.22 | 86.62 ± 6.81 | 36.61 ± 14.89 | 20.03 ± 0.96 | 45.14 ± 2.77 | 601.72 | 60593.24 | 11122.93 | 609.82 | 2578.59 | 1.78 | 402.77 | 4.54 | 14.16 | Anion Gap [1]: 30.14; BUN (Blood Urea Nitrogen) [1]: 17.43 mg/dL; BUN/CRT Ratio [1]: 45.86; CRT (Creatinine) [1]: 0.39 mg/dL; Total Bilirubin [1]: 0.10 mg/dL
7 | Chromium tris(5-hydroxytryptophan) [Cr(5HTP)3] | 167.00 | 25.00 | 267.43 | 68.84 | 2.72 | 184.77 | 452.96 | 94.32 ± 11.71 | 13.35 ± 8.28 | 25.64 ± 2.39 | 45.89 ± 4.53 | 359.61 | 44517.99 | 11831.51 | 589.26 | 1932.18 | 1.93 | 585.25 | 5.04 | 16.15 | Anion Gap [1]: 29.43; BUN (Blood Urea Nitrogen) [1]: 22.86 mg/dL; BUN/CRT Ratio [1]: 57.29; CRT (Creatinine) [1]: 0.40 mg/dL; Total Bilirubin [1]: 0.10 mg/dL
